Results reported in patent EP4667458A1 (Kanaph Therapeutics Inc., priority 2023, dated 2024).
pIC50: −log10 of the molar value.

Each compound was assayed against T1, SOS1 (Homo sapiens, UniProt Q07889) (assay: SOS-catalyzed nucleotide exchange assay (HTRF, SOS1-mediated GTP loading of KRAS G12D)). Settings: GST-KRAS G12D, HIS-SOS1cat, EDA-GTP-DY-647P1; compound 128 pM to 10 µM; read-out: SOS-catalyzed nucleotide exchange assay (IC50 range, Grade).
T1 construct: adding equal amounts of HIS-SOS1cat (160 nM; Cytoskeleton, US); His; purchased Cytoskeleton, US
T1 sequence (Q07889 564-1049 limits assumed): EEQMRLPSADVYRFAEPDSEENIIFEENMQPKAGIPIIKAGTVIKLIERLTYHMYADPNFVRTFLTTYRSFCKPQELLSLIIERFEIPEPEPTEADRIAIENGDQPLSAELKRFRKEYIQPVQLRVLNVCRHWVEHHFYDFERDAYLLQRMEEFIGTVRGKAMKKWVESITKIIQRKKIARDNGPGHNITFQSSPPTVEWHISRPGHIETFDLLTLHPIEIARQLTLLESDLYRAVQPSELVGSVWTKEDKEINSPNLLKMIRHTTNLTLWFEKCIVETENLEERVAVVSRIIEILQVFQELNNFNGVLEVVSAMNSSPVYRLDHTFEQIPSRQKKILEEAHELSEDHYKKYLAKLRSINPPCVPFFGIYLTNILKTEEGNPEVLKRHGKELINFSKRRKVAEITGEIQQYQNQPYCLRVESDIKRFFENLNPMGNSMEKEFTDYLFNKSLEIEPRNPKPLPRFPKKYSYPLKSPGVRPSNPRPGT
Type: biochemical
Protocol: SOS1 activity was measured by SOS1-mediated GTP loading quantification of KRAS^G12D. GTP-loaded KRAS^G12D was detected by HTRF (Homogeneous Time Resolved Fluorescence) using anti-GST terbium (Cisbio, France) as a donor and a fluorescence GTP analogue (EDA-GTP-DY-647P1, [DY-647P1-labeled 2'/3'-O-(2-aminoethyl-carbamoyl)guanosine-5'-triphosphate (Jena bioscience, Germany)]) as an acceptor.
Assay buffer was composed of 10 mM HEPES pH 7.4, 150 mM NaCl, 5 mM MgCl2, 1 mM DTT, 0.05% BSA Fraction V pH 7.0 (Sigma) and 0.0025% (v/v) Igepal (Sigma). KRAS^G12D working solution was prepared by adding equal amounts of GST-KRAS^G12D (100 nM) and anti-GST-terbium (2 nM; Cisbio, France) to the assay buffer and incubating on ice for 10 minutes. SOS1cat working solution was prepared by adding equal amounts of HIS-SOS1cat (160 nM; Cytoskeleton, US) and EDA-GTP-DY-647P1 (200 nM; Jena bioscience, Germany) to the assay buffer. Control solution was prepared by adding equal volumes of EDA-GTP-DY-647P1 and the assay buffer for normalization control to exclude GEF-independent GTP loading and background signals. In order to induce a reaction, 5 µL of the SOS1cat working solution or the control solution was injected into each well. 5 µL of a compound having various concentrations from 128 pM to 10 µM was added to wells containing the SOS1cat working solution and incubated at room temperature for 10 minutes to bind to SOS1.
10 µL of the KRAS^G12D solution was added to each well and incubated for 30 minutes at room temperature while shaking. HTRF was measured using a Thermo Varioskan (excitation 334 nm, emission 665 nm). The IC50 of each inhibitor was analyzed using Graphad Prism.
The SOS1 inhibitory activity of the Example compounds measured by the above method was evaluated based on the following criteria, and the results are shown in Table 29.

| SMILES | pIC50 |
| --- | --- |
| C[C@@H](NC(=O)c1cc(O)c(=O)n(-c2ccccc2)n1)c1cc(N)cc(C(F)(F)F)c1 [Example 48, (R)-N-(1-(3-amino-5-(trifluoromethyl)phenyl)ethyl)-5-hydroxy-6-oxo-1-phenyl-1,6-dihydropyridazine-3-carboxamide] | 5.00 to 6.00 |
| Cc1cc(=O)n(-c2ccccc2)nc1C(=O)N[C@H](C)c1cc(N)cc(C(F)(F)F)c1 [Example 49, N-[(1R)-1-[3-amino-5-(trifluoromethyl)phenyl]ethyl]-4-methyl-6-oxo-1-phenyl-pyridazine-3-carboxamide] | 5.00 to 6.00 |
| C#Cc1cc(=O)n(-c2ccccc2)nc1C(=O)N[C@H](C)c1cc(N)cc(C(F)(F)F)c1 [Example 50, N-[(1R)-1-[3-amino-5-(trifluoromethyl)phenyl]ethyl]-4-ethynyl-6-oxo-1-phenyl-pyridazine-3-carboxamide] | 5.00 to 6.00 |
| CC(=O)Nc1ccccc1-n1nc(C(=O)N[C@H](C)c2cc(N)cc(C(F)(F)F)c2)ccc1=O [Example 52, (R)-1-(2-acetamidophenyl)-N-(1-(3-amino-5-(trifluoromethyl)phenyl)ethyl)-6-oxo-1,6-dihydropyridazine-3-carboxamide] | 5.00 to 6.00 |
| CC(=O)Nc1cccc(-n2nc(C(=O)N[C@H](C)c3cccc(C(F)(F)CO)c3)ccc2=O)c1 [Example 53, 1-(3-acetamidophenyl)-N-[(1R)-1-[3-(1,1-difluoro-2-hydroxyethyl)phenyl]ethyl]-6-oxo-pyridazine-3-carboxamide] | 5.00 to 6.00 |
| CCOc1cccc([C@@H](C)NC(=O)c2ccc(=O)n(-c3ccccc3)n2)c1 [Example 60, (R)-N-(1-(3-ethoxyphenyl)ethyl)-6-oxo-1-phenyl-1,6-dihydropyridazine-3-carboxamide] | < 5.00 |
| C[C@@H](NC(=O)c1ccc(=O)n(-c2ccccc2)n1)c1cccc([Si](C)(C)C)c1 [Example 61, 6-oxo-1-phenyl-N-[(1R)-1-(3-trimethylsilylphenyl)ethyl]pyridazine-3-carboxamide] | 5.00 to 6.00 |
| C[C@@H](NC(=O)c1cn(-c2ccccc2)c(=O)cn1)c1cc(N)cc(C(F)(F)F)c1 [Example 63, N-[(1R)-1-[3-amino-5-(trifluoromethyl)phenyl]ethyl]-5-oxo-4-phenyl-pyrazine-2-carboxamide] | 5.00 to 6.00 |
| C[C@@H](NC(=O)c1ccc(=O)n(C2CC2)n1)c1cc(N)cc(C(F)(F)F)c1 [Example 64, N-[(1R)-1-[3-amino-5-(trifluoromethyl)phenyl]ethyl]-1-cyclopropyl-6-oxo-1,6-dihydropyridazine-3-carboxamide] | 5.00 to 6.00 |
| CC1CC=C(n2nc(C(=O)N[C@H](C)c3cc(N)cc(C(F)(F)F)c3)ccc2=O)CC1 (stereo partly drawn) [Example 66, N-[(1R)-1-[3-amino-5-(trifluoromethyl)phenyl]ethyl]-1-(4-methylcyclohex-1-en-1-yl)-6-oxo-1,6-dihydropyridazine-3-carboxamide] | 5.00 to 6.00 |
| C[C@@H](NC(=O)c1ccc(=O)n(C2=CCN(S(C)(=O)=O)CC2)n1)c1cc(N)cc(C(F)(F)F)c1 [Example 67, N-[(1R)-1-[3-amino-5-(trifluoromethyl)phenyl]ethyl]-1-(1-methanesulfonyl-1,2,3,6-tetrahydropyridin-4-yl)-6-oxo-1,6-dihydropyridazine-3-carboxamide] | > 6.00 |
| CC(=O)N1CC=C(n2nc(C(=O)N[C@H](C)c3cc(N)cc(C(F)(F)F)c3)ccc2=O)CC1 [Example 68, 1-(1-acetyl-1,2,3,6-tetrahydropyridin-4-yl)-N-[(1R)-1-[3-amino-5-(trifluoromethyl)phenyl]ethyl]-6-oxo-1,6-dihydropyridazine-3-carboxamide] | > 6.00 |
| C[C@@H](NC(=O)c1ccc(=O)n(C2=CCCN(S(C)(=O)=O)C2)n1)c1cc(N)cc(C(F)(F)F)c1 [Example 69, N-[(1R)-1-[3-amino-5-(trifluoromethyl)phenyl]ethyl]-1-(1-methanesulfonyl-1,2,5,6-tetrahydropyridin-3-yl)-6-oxo-1,6-dihydropyridazine-3-carboxamide] | 5.00 to 6.00 |

Results, then the compound that gave them:

| pIC50 | SMILES |
| --- | --- |
| > 6.00 | C[C@@H](NC(=O)c1ccc(=O)n(-c2ccccc2OC(F)(F)F)n1)c1cccc(C(F)(F)CO)c1F [Example 44, (R)-N-(1-(3-(1,1-difluoro-2-hydroxyethyl)-2-fluorophenyl)ethyl)-6-oxo-1-(2-(trifluoromethoxy)phenyl)-1,6-dihydropyridazine-3-carboxamide] |
| > 6.00 | C[C@@H](NC(=O)c1ccc(=O)n(-c2ccccc2OC(F)(F)F)n1)c1cc(N)cc(C(F)(F)F)c1 [Example 45, N-[(1R)-1-[3-amino-5-(trifluoromethyl)phenyl]ethyl]-6-oxo-1-[2-(trifluoromethoxy)phenyl]pyridazine-3-carboxamide] |
| > 6.00 | C[C@@H](NC(=O)c1ccc(=O)n(-c2ccccc2F)n1)c1cc(N)cc(C(F)(F)F)c1 [Example 46, (R)-N-(1-(3-amino-5-(trifluoromethyl)phenyl)ethyl)-1-(2-fluorophenyl)-6-oxo-1,6-dihydropyridazine-3-carboxamide] |
| > 6.00 | C[C@@H](NC(=O)c1ccc(=O)n(-c2ccccc2O)n1)c1cc(N)cc(C(F)(F)F)c1 [Example 47, N-[(1R)-1-[3-amino-5-(trifluoromethyl)phenyl]ethyl]-1-(2-hydroxyphenyl)-6-oxo-pyridazine-3-carboxamide] |
| > 6.00 | C[C@@H](NC(=O)c1ccc(=O)n(-c2ccccc2N)n1)c1cc(N)cc(C(F)(F)F)c1 [Example 51, (R)-N-(1-(3-amino-5-(trifluoromethyl)phenyl)ethyl)-1-(2-aminophenyl)-6-oxo-1,6-dihydropyridazine-3-carboxamide] |
| > 6.00 | C[C@@H](NC(=O)c1cc(C2CC2)c(=O)n(-c2ccccc2)n1)c1cc(N)cc(C(F)(F)F)c1 [Example 54, (R)-N-(1-(3-amino-5-(trifluoromethyl)phenyl)ethyl)-5-cyclopropyl-6-oxo-1-phenyl-1,6-dihydropyridazine-3-carboxamide] |
| > 6.00 | C[C@@H](NC(=O)c1nn(-c2ccccc2)c(=O)cc1C1CC1)c1cc(N)cc(C(F)(F)F)c1 [Example 55, (R)-N-(1-(3-amino-5-(trifluoromethyl)phenyl)ethyl)-4-cyclopropyl-6-oxo-1-phenyl-1,6-dihydropyridazine-3-carboxamide] |
| > 6.00 | C[C@@H](NC(=O)c1cc(C#N)c(=O)n(-c2ccccc2)n1)c1cc(N)cc(C(F)(F)F)c1 [Example 56, N-[(1R)-1-[3-amino-5-(trifluoromethyl)phenyl]ethyl]-5-cyano-6-oxo-1-phenyl-pyridazine-3-carboxamide] |
| > 6.00 | C[C@@H](NC(=O)c1ccc(=O)n(-c2ccccc2)n1)c1cccc(C(F)(F)CO)c1 [Example 57, N-[(1R)-1-[3-(1,1-difluoro-2-hydroxy-ethyl)phenyl]ethyl]-6-oxo-1-phenyl-pyridazine-3-carboxamide] |
| > 6.00 | C[C@@H](NC(=O)c1ccc(=O)n(-c2cccc(S(C)(=O)=O)c2)n1)c1cccc(C(F)(F)CO)c1 [Example 58, N-[(1R)-1-[3-(1,1-difluoro-2-hydroxy-ethyl)phenyl]ethyl]-1-(3-methylsulfonylphenyl)-6-oxo-pyridazine-3-carboxamide] |
| > 6.00 | C[C@@H](NC(=O)c1ccc(=O)n(-c2ccccc2)n1)c1cccc(C(F)(F)CO)c1F [Example 59, N-[(1R)-1-[3-(1,1-difluoro-2-hydroxy-ethyl)-2-fluoro-phenyl]ethyl]-6-oxo-1-phenyl-pyridazine-3-carboxamide] |
| > 6.00 | C[C@@H](NC(=O)c1ccc(=O)n(-c2ccccc2)c1)c1cc(N)cc(C(F)(F)F)c1 [Example 62, N-[(1R)-1-[3-amino-5-(trifluoromethyl)phenyl]ethyl]-6-oxo-1-phenylpyridine-3-carboxamide] |
| > 6.00 | C[C@@H](NC(=O)c1ccc(=O)n(C2=CCCCC2)n1)c1cc(N)cc(C(F)(F)F)c1 [Example 65, N-[(1R)-1-[3-amino-5-(trifluoromethyl)phenyl]ethyl]-1-(cyclohex-1-en-1-yl)-6-oxo-1,6-dihydropyridazine-3-carboxamide] |
